target: T1, human PAH with the R408W mutation (A375 R408W cells) (Homo sapiens, UniProt P00439, R408W); assay: Cell Based Phenylalanine Flux Assay; conditions: A375 R408W cells; 24 hrs with compound, then 20 μM sepiapterin and 800 μM 13C9,15N-Phenylalanine for 4 hours; 13C-Tyrosine by LC-MS; average where tested multiple times
T1 construct: expressed in transfected cells
T1 sequence (P00439 1-452 R408W): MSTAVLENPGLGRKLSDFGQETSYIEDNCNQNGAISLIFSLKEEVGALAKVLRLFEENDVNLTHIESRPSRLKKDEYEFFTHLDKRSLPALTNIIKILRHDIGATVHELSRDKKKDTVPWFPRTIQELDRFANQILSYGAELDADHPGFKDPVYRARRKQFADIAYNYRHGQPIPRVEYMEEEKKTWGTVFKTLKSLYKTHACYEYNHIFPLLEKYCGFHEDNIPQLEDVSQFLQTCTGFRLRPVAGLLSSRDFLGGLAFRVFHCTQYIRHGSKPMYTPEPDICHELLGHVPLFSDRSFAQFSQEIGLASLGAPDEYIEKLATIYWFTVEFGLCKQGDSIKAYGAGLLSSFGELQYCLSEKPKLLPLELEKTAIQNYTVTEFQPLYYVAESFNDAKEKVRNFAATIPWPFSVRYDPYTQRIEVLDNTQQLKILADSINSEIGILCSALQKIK
How it was run: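 LC-MS quantitation of 13C-tyrosine in media gave AC50 values. Stable A375 R408W PAH cells were preincubated 24 h with compound, then fed 800 μM labelled Phe plus 20 μM sepiapterin for 4 h. Dose curves were 10-point, tested in duplicate, averaged over repeat runs.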

| Structure (SMILES) | AC50 [nM] |
| --- | --- |
| Cn1nc(C(F)F)nc1C(=O)N1CCc2[nH]cnc2[C@@H]1c1nc2ccccc2o1 [Example 562, (R)-(4-(benzo[d]oxazol-2-yl)-6,7-dihydro-1H-imidazo[4,5-c]pyridin-5(4H)-yl)(3-(difluoromethyl)-1-methyl-1H-1,2,4-triazol-5-yl)methanone] | 1000 to 5000 |
| O=C(c1ocnc1C(F)F)N1CCc2[nH]cnc2[C@H]1c1nc2c(Br)cccc2o1 [Example 433, (S)-(4-(4-bromobenzo[d]oxazol-2-yl)-6,7-dihydro-1H-imidazo[4,5-c]pyridin-5(4H)-yl)(4-(difluoromethyl)oxazol-5-yl)methanone] | ≤ 500 |
| Cn1nc(C(F)F)cc1C(=O)N1CCc2[nH]cnc2[C@H]1c1nc2ccccc2o1 [Example 731, (S)-(4-(benzo[d]oxazol-2-yl)-6,7-dihydro-1H-imidazo[4,5-c]pyridin-5(4H)-yl)(3-(difluoromethyl)-1-methyl-1H-pyrazol-5-yl)methanone] | ≤ 500 |
| O=C(c1nnc(-c2c(F)cccc2F)o1)N1CCc2[nH]cnc2[C@@H]1c1nc2cc(F)ccc2o1 [Example 26, (R)-(5-(2,6-difluorophenyl)-1,3,4-oxadiazol-2-yl)(4-(5-fluorobenzo[d]oxazol-2-yl)-6,7-dihydro-1H-imidazo[4,5-c]pyridin-5(4H)-yl)methanone] | 500 to 1000 |
| Cn1cc(-c2ncc(C(=O)N3CCc4[nH]cnc4[C@@H]3c3nc4cc(F)ccc4o3)s2)cn1 [Example 10, (R)-(4-(5-fluorobenzo[d]oxazol-2-yl)-6,7-dihydro-1H-imidazo[4,5-c]pyridin-5(4H)-yl)(2-(1-methyl-1H-pyrazol-4-yl)thiazol-5-yl)methanone] | 1000 to 5000 |
| CC(C)(O)c1ncc(C(=O)N2CCc3[nH]cnc3[C@H]2c2nc3c(F)cccc3o2)o1 [Example 893, (S)-(4-(4-fluorobenzo[d]oxazol-2-yl)-6,7-dihydro-1H-imidazo[4,5-c]pyridin-5(4H)-yl)(2-(2-hydroxypropan-2-yl)oxazol-5-yl)methanone] | 1000 to 5000 |
| O=C(N1CCc2[nH]cnc2[C@H]1c1nc2cc(F)ccc2o1)C1(c2cnco2)CC1 [Example 917, (S)-(4-(5-fluorobenzo[d]oxazol-2-yl)-6,7-dihydro-1H-imidazo[4,5-c]pyridin-5(4H)-yl)(1-(oxazol-5-yl)cyclopropyl)methanone] | 1000 to 5000 |
| Cc1cccc2nc([C@@H]3c4nc[nH]c4CCN3C(=O)c3ocnc3C(F)F)oc12 [Example 393, (S)-(4-(difluoromethyl)oxazol-5-yl)(4-(7-methylbenzo[d]oxazol-2-yl)-6,7-dihydro-1H-imidazo[4,5-c]pyridin-5(4H)-yl)methanone] | ≤ 500 |
| O=C(c1cnc(-c2ccccn2)o1)N1CCc2[nH]cnc2[C@@H]1c1nc2cc(F)ccc2o1 [Example 12, (R)-(4-(5-fluorobenzo[d]oxazol-2-yl)-6,7-dihydro-1H-imidazo[4,5-c]pyridin-5(4H)-yl)(2-(pyridin-2-yl)oxazol-5-yl)methanone] | 1000 to 5000 |
| O=C(c1cnc(-c2ccccn2)s1)N1CCc2[nH]cnc2[C@H]1c1nc2cc(F)ccc2o1 [Example 5, (S)-(4-(5-fluorobenzo[d]oxazol-2-yl)-6,7-dihydro-1H-imidazo[4,5-c]pyridin-5(4H)-yl)(2-(pyridin-2-yl)thiazol-5-yl)methanone] | ≤ 500 |
| O=C(c1ccnn1CC(F)F)N1CCc2[nH]cnc2[C@H]1c1nc2cccc(F)c2o1 [Example 847, (S)-(1-(2,2-difluoroethyl)-1H-pyrazol-5-yl)(4-(7-fluorobenzo[d]oxazol-2-yl)-6,7-dihydro-1H-imidazo[4,5-c]pyridin-5(4H)-yl)methanone] | ≤ 500 |
| Cn1cc(-c2ccc3c(C(=O)N4CCc5[nH]cnc5[C@H]4c4nc5cccc(F)c5o4)cnn3c2)cn1 [Example 383, (S)-(4-(7-fluorobenzo[d]oxazol-2-yl)-6,7-dihydro-1H-imidazo[4,5-c]pyridin-5(4H)-yl)(6-(1-methyl-1H-pyrazol-4-yl)pyrazolo[1,5-a]pyridin-3-yl)methanone] | ≤ 500 |
| Cn1nc(C(F)(F)F)nc1C(=O)N1CCc2[nH]cnc2[C@@H]1c1nc2cccc(F)c2o1 [Example 280, (R)-(4-(7-fluorobenzo[d]oxazol-2-yl)-6,7-dihydro-1H-imidazo[4,5-c]pyridin-5(4H)-yl)(1-methyl-3-(trifluoromethyl)-1H-1,2,4-triazol-5-yl)methanone] | 1000 to 5000 |

Other lines, results leading:

| AC50 [nM] | Structure (SMILES) |
| --- | --- |
| 500 to 1000 | O=C(c1oc(C2(O)CC2)nc1C(F)F)N1CCc2[nH]cnc2[C@@H]1c1nc2cccc(F)c2o1 [Example 213, (R)-(4-(difluoromethyl)-2-(1-hydroxycyclopropyl)oxazol-5-yl)(4-(7-fluorobenzo[d]oxazol-2-yl)-6,7-dihydro-1H-imidazo[4,5-c]pyridin-5(4H)-yl)methanone] |
| ≤ 500 | CC(C)(O)c1nc(C(F)(F)F)c(C(=O)N2CCc3[nH]cnc3[C@H]2c2nc3cccc(F)c3o2)o1 [Example 253, (S)-(4-(7-fluorobenzo[d]oxazol-2-yl)-6,7-dihydro-1H-imidazo[4,5-c]pyridin-5(4H)-yl)(2-(2-hydroxypropan-2-yl)-4-(trifluoromethyl)oxazol-5-yl)methanone] |
| ≥ 5000 | Cc1nc([C@@H](C)O)oc1C(=O)N1CCc2[nH]cnc2[C@@H]1c1nc2cc(F)ccc2o1 [Example 136, ((R)-4-(5-fluorobenzo[d]oxazol-2-yl)-6,7-dihydro-1H-imidazo[4,5-c]pyridin-5(4H)-yl)(2-((R)-1-hydroxyethyl)-4-methyloxazol-5-yl)methanone] |
| 1000 to 5000 | CC(C)(O)c1nc(Cl)c(C(=O)N2CCc3[nH]cnc3[C@@H]2c2nc3c(F)cccc3o2)o1 [Example 273, (R)-(4-chloro-2-(2-hydroxypropan-2-yl)oxazol-5-yl)(4-(4-fluorobenzo[d]oxazol-2-yl)-6,7-dihydro-1H-imidazo[4,5-c]pyridin-5(4H)-yl)methanone] |
| 500 to 1000 | Cc1ccc2oc([C@@H]3c4nc[nH]c4CCN3C(=O)c3oc(C(C)(C)O)nc3C)nc2c1 [Example 331, (S)-(2-(2-hydroxypropan-2-yl)-4-methyloxazol-5-yl)(4-(5-methylbenzo[d]oxazol-2-yl)-6,7-dihydro-1H-imidazo[4,5-c]pyridin-5(4H)-yl)methanone] |
| 500 to 1000 | Cn1cncc1-c1nc(C(F)F)c(C(=O)N2CCc3[nH]cnc3[C@H]2c2nc3cc(F)ccc3o2)o1 [Example 687, (S)-(4-(difluoromethyl)-2-(1-methyl-1H-imidazol-5-yl)oxazol-5-yl)(4-(5-fluorobenzo[d]oxazol-2-yl)-6,7-dihydro-1H-imidazo[4,5-c]pyridin-5(4H)-yl)methanone] |
| 500 to 1000 | O=C(c1oc(C2(O)CC2)nc1C(F)F)N1CCc2[nH]cnc2[C@H]1c1nc2cc(F)ccc2o1 [Example 141, (S)-(4-(difluoromethyl)-2-(1-hydroxycyclopropyl)oxazol-5-yl)(4-(5-fluorobenzo[d]oxazol-2-yl)-6,7-dihydro-1H-imidazo[4,5-c]pyridin-5(4H)-yl)methanone] |
| 500 to 1000 | Cn1cc(C(=O)N2CCc3[nH]cnc3[C@H]2c2nc3cc(F)ccc3o2)c(C(F)F)n1 [Example 95, (S)-(3-(difluoromethyl)-1-methyl-1H-pyrazol-4-yl)(4-(5-fluorobenzo[d]oxazol-2-yl)-6,7-dihydro-1H-imidazo[4,5-c]pyridin-5(4H)-yl)methanone] |
| 1000 to 5000 | CC(O)c1nc(Br)c(C(=O)N2CCc3[nH]cnc3[C@@H]2c2nc3cc(F)ccc3o2)o1 (single isomer, unassigned) [Example 223] |

same assay, conditions: A375 cells expressing R408W PAH; 24 hrs with compound, then 20 μM sepiapterin and 800 μM 13C9,15N-Phenylalanine for 4 hours; 13C-Tyrosine by LC-MS; average where tested multiple times

| Structure (SMILES) | AC50 [nM] |
| --- | --- |
| Cc1cccc2nc([C@H]3c4nc[nH]c4CCN3C(=O)c3cnc(C(C)(C)O)o3)oc12 (single isomer, unassigned) | ≥ 5000 |
| Cn1cc(C(=O)N2CCc3[nH]cnc3C2c2nc3cc(F)ccc3o2)c(Cl)n1 (centres unmarked) | 1000 to 5000 |
| Cn1ccc(C(=O)N2CCc3[nH]cnc3C2c2nc3cc(F)ccc3o2)n1 (centres unmarked) | 1000 to 5000 |
| COC(=O)N1CC(C(=O)N2CCc3[nH]cnc3C2c2nc3cc(F)ccc3o2)C1 (centres unmarked) | 1000 to 5000 |
| O=C(CCc1cnco1)N1CCc2[nH]cnc2C1c1nc2c(F)cccc2o1 (centres unmarked) | 1000 to 5000 |
| CN(C)CCCOc1ccc2c(C(=O)N3CCc4[nH]cnc4C3c3nc4cc(F)ccc4o3)cnn2c1 (centres unmarked) | 1000 to 5000 |
| O=C(c1cnco1)N1CCc2[nH]cnc2C1c1nc2ccc(F)c(F)c2o1 (centres unmarked) | 1000 to 5000 |
| Cn1nc(C(F)F)nc1C(=O)N1CCc2[nH]cnc2C1c1nc2c(F)cccc2o1 (centres unmarked) | 1000 to 5000 |

Next, values leading:

| AC50 [nM] | Structure (SMILES) |
| --- | --- |
| 1000 to 5000 | Cc1ncoc1C(=O)N1CCc2[nH]cnc2C1c1nc2cc(F)ccc2o1 (centres unmarked) |
| 1000 to 5000 | CC1CN(C(=O)c2oc(C(C)(C)O)nc2C(F)F)C(c2nc3cc(F)ccc3o2)c2nc[nH]c21 (centres unmarked) |
| 1000 to 5000 | O=C(c1cn[nH]c1C(F)F)N1CCc2[nH]cnc2C1c1nc2cc(F)ccc2o1 (centres unmarked) |
| 1000 to 5000 | O=C(c1ncc(Cl)s1)N1CCc2[nH]cnc2C1c1nc2cc(F)ccc2o1 (centres unmarked) |
| ≥ 5000 | CC(C)(O)Cn1cc(C(=O)N2CCc3[nH]cnc3C2c2nc3cc(F)ccc3o2)cn1 (centres unmarked) |

Reference: patent US20250171437A1 (Agios Pharmaceuticals,Inc., priority 2022, published 2025)
